# Test system: Mouse IL-6 secretion, RAW264.7
# Assay: Mouse IL-6 production in Raw264.7 cells (ELISA)
# Type: cell-based
# Conditions: for Mouse IL-6 Content, Average / Mouse IL-6 Content, Entry 2 / Mouse IL-6 Content, Entry 3 / Mouse IL-6 Content, Entry 1: Raw264.7, LPS & IFN-r, 24 hours, Positive Control 100%; for Mouse IL-6 Content, Entry 2: passage N + 3; for Mouse IL-6 Content, Entry 3: passage N + 6; for Mouse IL-6 Content, Entry 1: passage N + 7
# Experimental: Murine macrophage cell line RAW264.7 (BCRC No. 60001)
# Complete Medium (as negative control): DMEM medium with 10% Fetal Bovine Serum
# Testing Medium (as positive control): 100 ng/mL LPS and 10 ng/mL IFN-r in Complete Medium
# a. Rinse the confluent Raw264.7 cells with sterile D-PBS then trypsinize all cells and perform cell counting.
# b. Dilute the cell density to 2E+05/mL and seed 0.1 mL cell liquid (equals to 2E+04 cells) each well in 96-well plate.
# c. Incubate Raw264.7 cells at 37° C., 5% CO2 for about 24 hours.
# d. Prepared 2× dosing solution of testing material in 2× Testing Medium (means w/ 200 ng/mL ? LPS&20 ng/mL ? IFN-r): 0.8%, 0.4%, 0.2%, 0.1% (Final testing material: 0.4%, 0.2%, 0.1%, 0.05%)
# e. […] Add 100 μL controls and testing materials in different concentrations into Raw264.7 cells in 96 well plates. Controls/Test materials should be tested at least three wells.
# f. Incubate Raw264.7 cells at 37° C., 5% CO2 for about 24 hours.
# g. After incubating for about 24 hours, collect the supernatant of controls and testing materials.
# h. Determine the IL-6/MIP-2 content of the supernatant by R&D ELISA kit as mentioned previously.
compound,measurement,setting,value
"CC(=O)NCC(=O)NCCC(=O)O [Ac-Gly-β-Ala, 3-(2-acetylamino-acetylamino)-propionic acid]","IL-6 production, dose dependence","0.05%-0.4%, Raw264.7",dose-dependently inhibited
same,"Mouse IL-6 Content, Average",0.05%,97%
same,"Mouse IL-6 Content, Entry 2",0.05%,105%
same,"Mouse IL-6 Content, Entry 3",0.05%,95%
same,"Mouse IL-6 Content, Entry 1",0.05%,91%
same,"Mouse IL-6 Content, Average",0.10%,86%
same,"Mouse IL-6 Content, Entry 2",0.10%,96%
same,"Mouse IL-6 Content, Entry 3",0.10%,78%
same,"Mouse IL-6 Content, Entry 1",0.10%,85%
same,"Mouse IL-6 Content, Average",0.20%,54%
same,"Mouse IL-6 Content, Entry 2",0.20%,58%
same,"Mouse IL-6 Content, Entry 3",0.20%,42%
same,"Mouse IL-6 Content, Entry 1",0.20%,64%
same,"Mouse IL-6 Content, Average",0.40%,34%
same,"Mouse IL-6 Content, Entry 2",0.40%,40%
same,"Mouse IL-6 Content, Entry 3",0.40%,40%
same,"Mouse IL-6 Content, Entry 1",0.40%,24%

# Source: patent US20140314697A1, “Method for Inhibiting Inflammation and Reducing Melanophilin Expression with Glycine Derivatives And the Composition Thereof” (CORUM INC., priority 2013, published 2014)
